Data taken from US11897904B2, “Herbicidally active bicyclic benzamides” (Bayer Aktiengesellschaft, priority 2017, dated 2024).

Experiments:
SETVI [1] = experiment: Pre-emergence herbicidal action; format: in vivo, Setaria viridis; settings: 320 g/ha; for herbicidal activity SETVI: pre-emergence, scored visually after about 3 weeks vs untreated controls
Text: (§1) 1. Pre-Emergence Herbicidal Action and Crop Plant Compatibility
(§2) Seeds of monocotyledonous and dicotyledonous weed plants and crop plants are placed in plastic or organic planting pots and covered with soil. The compounds of the invention, formulated in the form of wettable powders (WP) or as emulsion concentrates (EC), are then applied onto the surface of the covering soil as aqueous suspension or emulsion with addition of 0.5% additive at a water application rate of 600 l/ha (converted). After the treatment, the pots are placed in a greenhouse and kept under good growth conditions for the trial plants. After about 3 weeks, the effect of the preparations is scored visually in comparison with untreated controls as percentages. The tables below show the herbicidal activity of numerous compounds according to the invention against important harmful plants. For example, 100% activity=the plants have died, 0% activity=like control plants.

ABUTH [2] = experiment: Pre-emergence herbicidal action; format: in vivo, Abutilon theophrasti; settings: 320 g/ha; for herbicidal activity ABUTH: pre-emergence, scored visually after about 3 weeks vs untreated controls
Text: as §1, §2

POLCO = experiment: Post-emergence herbicidal action; format: in vivo, Polygonum convolvulus; settings: post-emergence comparative experiment, 80 g/ha
Experimental: (§3) 2. Post-Emergence Herbicidal Action and Crop Plant Compatibility
(§4) Seeds of monocotyledonous and dicotyledonous weeds and crop plants are placed in sandy loam in plastic or organic planting pots, covered with soil and cultivated in a greenhouse under controlled growth conditions. 2 to 3 weeks after sowing, the test plants are treated at the one-leaf stage. The compounds of the invention, formulated in the form of wettable powders (WP) or as emulsion concentrates (EC), are then sprayed onto the green parts of the plants as aqueous suspension or emulsion with addition of 0.5% additive at a water application rate of […] (converted). After the test plants had been kept in the greenhouse under optimum growth conditions for about 3 weeks, the activity of the preparations is rated visually in comparison to untreated controls. The tables below show the herbicidal activity of numerous compounds according to the invention against important harmful plants. For example, 100% activity=the plants have died, 0% activity=like control plants.

ALOMY [3] = experiment: Pre-emergence herbicidal action; format: in vivo, Alopecurus myosuroides; settings: pre-emergence comparative experiment, 320 g/ha
Text: as §1, §2

MATIN [4] = experiment: Pre-emergence herbicidal action; format: in vivo, Matricaria inodora; settings: 320 g/ha; for herbicidal activity MATIN: pre-emergence, scored visually after about 3 weeks vs untreated controls
Text: as §1, §2

ALOMY [5] = experiment: Post-emergence herbicidal action; format: in vivo, Alopecurus myosuroides; settings: post-emergence comparative experiment, 80 g/ha
Experimental: as §3, §4

ABUTH [6] = experiment: Post-emergence herbicidal action; format: in vivo, Abutilon theophrasti; settings: 80 g/ha; for herbicidal activity ABUTH: post-emergence, rated visually after about 3 weeks vs untreated controls
Experimental: as §3, §4

numerous harmful plants [7] = experiment: Pre-emergence comparative experiment, herbicidal activity; format: in vivo
Text: as §2, with “control plants. In a comparative experiment, by way of example, the herbicidal activity of compound No. 2-53 according to the invention was compared to that of compound No. A-117 known from WO 2013/076315 A2.” for “control plants.”

LOLMU = experiment: Post-emergence herbicidal action; format: in vivo, Lolium multiflorum; settings: post-emergence comparative experiment, 80 g/ha
Experimental: as §3, §4

numerous harmful plants [8] = experiment: Post-emergence comparative experiment, herbicidal activity; format: in vivo
Experimental: as §4, with “control plants. In a comparative experiment, by way of example, the herbicidal activity of compound No. 2-53 according to the invention was compared to that of compound No. A-117 known from WO 2013/076315 A2.” for “control plants.”

AVEFA [9] = experiment: Post-emergence herbicidal action; format: in vivo, Avena fatua; settings: post-emergence comparative experiment, 80 g/ha
Experimental: as §3, §4

AVEFA [10] = experiment: Pre-emergence herbicidal action; format: in vivo, Avena fatua; settings: pre-emergence comparative experiment, 320 g/ha
Text: as §1, §2

ECHCG [11] = experiment: Post-emergence herbicidal action; format: in vivo, Echinochloa crus-galli; settings: 80 g/ha, rated visually after about 3 weeks vs untreated controls
Experimental: as §3, §4

VIOTR [12] = experiment: Post-emergence herbicidal action; format: in vivo, Viola tricolor; settings: 80 g/ha, rated visually after about 3 weeks vs untreated controls
Experimental: as §3, §4

PHBPU = experiment: Post-emergence herbicidal action; format: in vivo, Ipomoea purpurea; settings: 80 g/ha, rated visually after about 3 weeks vs untreated controls
Experimental: as §3, §4

STEME [13] = experiment: Pre-emergence herbicidal action; format: in vivo, Stellaria media; settings: 320 g/ha, scored visually after about 3 weeks vs untreated controls
Text: as §1, §2

ECHCG [14] = experiment: Pre-emergence herbicidal action; format: in vivo, Echinochloa crus-galli; settings: 320 g/ha, scored visually after about 3 weeks vs untreated controls
Text: as §1, §2

SETVI [15] = experiment: Post-emergence herbicidal action; format: in vivo, Setaria viridis; settings: 80 g/ha, rated visually after about 3 weeks vs untreated controls
Experimental: as §3, §4

MATIN [16] = experiment: Post-emergence herbicidal action; format: in vivo, Matricaria inodora; settings: 80 g/ha, rated visually after about 3 weeks vs untreated controls
Experimental: as §3, §4

STEME [17] = experiment: Post-emergence herbicidal action; format: in vivo, Stellaria media; settings: 80 g/ha, rated visually after about 3 weeks vs untreated controls
Experimental: as §3, §4

VIOTR [18] = experiment: Pre-emergence herbicidal action; format: in vivo, Viola tricolor; settings: 320 g/ha, scored visually after about 3 weeks vs untreated controls
Text: as §1, §2

VERPE [19] = experiment: Post-emergence herbicidal action; format: in vivo, Veronica persica; settings: 80 g/ha, rated visually after about 3 weeks vs untreated controls
Experimental: as §3, §4

CYPES = experiment: Pre-emergence herbicidal action; format: in vivo, Cyperus esculentus; settings: dosage 320 g/ha, scored visually after about 3 weeks vs untreated controls, 100% = plants have died, 0% = like control plants
Text: as §1, §2

AMARE [20] = experiment: Pre-emergence herbicidal action; format: in vivo, Amaranthus retroflexus; settings: 320 g/ha, scored visually after about 3 weeks vs untreated controls
Text: as §1, §2

AMARE [21] = experiment: Post-emergence herbicidal action; format: in vivo, Amaranthus retroflexus; settings: 80 g/ha, rated visually after about 3 weeks vs untreated controls
Experimental: as §3, §4

VERPE [22] = experiment: Pre-emergence herbicidal action; format: in vivo, Veronica persica; settings: 320 g/ha, scored visually after about 3 weeks vs untreated controls
Text: as §1, §2

[23] = pre-emergence comparative experiment

Cn1nnnc1NC(=O)c1ccc(C(F)(F)F)c2c1OCS2 [Example 2-53, 4-(trifluoromethyl)-1,3-benzoxathiolane-N-(1-methyltetrazol-5-yl)-7-carboxamide]
90%: Herbicidal action against ABUTH (ABUTH [2]; [23]) | Herbicidal action against MATIN (MATIN [4]; [23])
superiority: herbicidal activity compared to that of compound No. A-117 (numerous harmful plants [7]) | herbicidal activity compared to that of compound No. A-117 (numerous harmful plants [8])
60%: Herbicidal action against AVEFA (AVEFA [10])
80%: Herbicidal action against SETVI (SETVI [1]; [23]) | Herbicidal action against POLCO (POLCO) | Herbicidal action against ALOMY (ALOMY [5]) | Herbicidal action against ABUTH (ABUTH [6]; post-emergence comparative experiment)
100%: Herbicidal action against AVEFA (AVEFA [9])
70%: Herbicidal action against LOLMU (LOLMU)
30%: Herbicidal action against ALOMY (ALOMY [3])

Cn1nnnc1NC(=O)c1ccc(C(F)(F)F)c2c1OC[S+]2[O-] (centres unmarked) [Example 2-68, 4-(trifluoromethyl)-1,3-benzoxathiolane-N-(1-methyltetrazol-5-yl)-7-carboxamide 3-oxide]
90%: herbicidal activity ABUTH (ABUTH [2]) | herbicidal activity PHBPU (PHBPU) | herbicidal activity MATIN (MATIN [4]) | herbicidal activity STEME (STEME [13]) | herbicidal activity ECHCG (ECHCG [14]) | herbicidal activity SETVI (SETVI [15]) | herbicidal activity MATIN (MATIN [16]) | herbicidal activity CYPES (CYPES)
100%: herbicidal activity ECHCG (ECHCG [11]) | herbicidal activity SETVI (SETVI [1]) | herbicidal activity VIOTR (VIOTR [12]) | herbicidal activity STEME (STEME [17]) | herbicidal activity VIOTR (VIOTR [18]) | herbicidal activity VERPE (VERPE [19]) | herbicidal activity AMARE (AMARE [20]) | herbicidal activity AMARE (AMARE [21]) | herbicidal activity VERPE (VERPE [22])

Cn1nnnc1NC(=O)c1ccc(C(F)(F)F)c2c1OCS2(=O)=O [Example 2-83]
90%: herbicidal activity ECHCG (ECHCG [11]) | herbicidal activity PHBPU (PHBPU) | herbicidal activity MATIN (MATIN [4]) | herbicidal activity SETVI (SETVI [15]) | herbicidal activity ABUTH (ABUTH [6]) | herbicidal activity VERPE (VERPE [19])
100%: herbicidal activity SETVI (SETVI [1]) | herbicidal activity ABUTH (ABUTH [2]) | herbicidal activity VIOTR (VIOTR [12]) | herbicidal activity STEME (STEME [13]) | herbicidal activity ECHCG (ECHCG [14]) | herbicidal activity MATIN (MATIN [16]) | herbicidal activity STEME (STEME [17]) | herbicidal activity VIOTR (VIOTR [18]) | herbicidal activity CYPES (CYPES) | herbicidal activity AMARE (AMARE [20]) | herbicidal activity AMARE (AMARE [21]) | herbicidal activity VERPE (VERPE [22])

CC1Oc2c(C(=O)Nc3nnnn3C)ccc(C(F)(F)F)c2S1(=O)=O (centres unmarked) [Example 2-106]
80%: herbicidal activity PHBPU (PHBPU)
100%: herbicidal activity ECHCG (ECHCG [11]) | herbicidal activity ABUTH (ABUTH [2]) | herbicidal activity VIOTR (VIOTR [12]) | herbicidal activity MATIN (MATIN [4]) | herbicidal activity SETVI (SETVI [15]) | herbicidal activity STEME (STEME [17]) | herbicidal activity VIOTR (VIOTR [18]) | herbicidal activity AMARE (AMARE [20]) | herbicidal activity AMARE (AMARE [21])
90%: herbicidal activity SETVI (SETVI [1]) | herbicidal activity STEME (STEME [13]) | herbicidal activity ECHCG (ECHCG [14]) | herbicidal activity MATIN (MATIN [16]) | herbicidal activity ABUTH (ABUTH [6]) | herbicidal activity CYPES (CYPES)

CCn1nnnc1NC(=O)c1ccc(C(F)(F)F)c2c1OC[S+]2[O-] (centres unmarked) [Example 3-67]
80%: herbicidal activity SETVI (SETVI [1]) | herbicidal activity ABUTH (ABUTH [6]) | herbicidal activity CYPES (CYPES)
90%: herbicidal activity ABUTH (ABUTH [2]) | herbicidal activity MATIN (MATIN [4]) | herbicidal activity MATIN (MATIN [16])
100%: herbicidal activity ECHCG (ECHCG [11]) | herbicidal activity VIOTR (VIOTR [12]) | herbicidal activity PHBPU (PHBPU) | herbicidal activity STEME (STEME [13]) | herbicidal activity ECHCG (ECHCG [14]) | herbicidal activity STEME (STEME [17]) | herbicidal activity VIOTR (VIOTR [18]) | herbicidal activity VERPE (VERPE [19]) | herbicidal activity AMARE (AMARE [20]) | herbicidal activity AMARE (AMARE [21]) | herbicidal activity VERPE (VERPE [22])

CCn1nnnc1NC(=O)c1ccc(C(F)(F)F)c2c1OCS2(=O)=O [Example 3-82]
90%: herbicidal activity ABUTH (ABUTH [2]) | herbicidal activity PHBPU (PHBPU) | herbicidal activity CYPES (CYPES)
80%: herbicidal activity ECHCG (ECHCG [11])
100%: herbicidal activity VIOTR (VIOTR [12]) | herbicidal activity MATIN (MATIN [4]) | herbicidal activity STEME (STEME [13]) | herbicidal activity ECHCG (ECHCG [14]) | herbicidal activity MATIN (MATIN [16]) | herbicidal activity STEME (STEME [17]) | herbicidal activity VIOTR (VIOTR [18]) | herbicidal activity VERPE (VERPE [19]) | herbicidal activity AMARE (AMARE [20]) | herbicidal activity AMARE (AMARE [21]) | herbicidal activity VERPE (VERPE [22])
